Assay results taken from patent US11149009B2, “Fused piperidinyl bicyclic and related compounds as modulators of C5A receptor” (InflaRx GmbH, priority 2019, dated 2021).

Target: C5a receptor (Homo sapiens (Human), UniProt P21730)
Test: Calcium mobilization assay (C5a-induced, U937 cells)
Format: cell-based
Details: inhibition of C5a-induced calcium mobilization
Description: U937 cells (ATCC® CRL-1593.2) were cultivated in RPMI1640 medium supplemented with 10% fetal bovine serum in a standard cell culture incubator. The day before conducting the assay, Dibutyryl-cAMP (0.5 mM working concentration) was added to cell cultures. Next day, cells were spun and resuspended in RPMI 1640 to a concentration of 40,000 cells per 50 μl. 40,000 cells were plated in one well in a 96 well poly-D-lysine coated plate for two hours to allow cells to adhere. After cell adherence, cytoplasmic calcium^++ indicator (FLIPR Calcium 6 Assay Kit, Molecular Devices) was added to each well and incubated for 75 minutes at 37° C. Test compounds were diluted using a robotic liquid handler. The tips of the robotic liquid handler were changed after each mixing step. Test compounds were added into cell cultures at various concentrations (0.01 nM to 100 μM) for 15 minutes at 37° C. The cell culture plates were then incubated at room temperature for 30 minutes before being placed into Flexstation-3 plate reader (Molecular Devices). The Flexstation-3 was programmed to add recombinant C5a protein at various concentrations (1 nM to 10 nM) to cell culture plates and to monitor the change of fluorescence intensity, which correlates with cytoplasmic calcium concentration. The assay was also performed with the presence of human or animal blood components, such as human or bovine plasma or serum.
The half maximal inhibitory concentrations, i.e. IC50, were determined in biological assays, such as calcium mobilization assay. Using the calcium mobilization assay the following IC50 values were determined by the best dose-response curve fitting method. The curves were plotted using percentage inhibition of C5a-induced calcium mobilization versus various concentrations of compounds.

Sequence of C5a receptor (P21730 whole entry): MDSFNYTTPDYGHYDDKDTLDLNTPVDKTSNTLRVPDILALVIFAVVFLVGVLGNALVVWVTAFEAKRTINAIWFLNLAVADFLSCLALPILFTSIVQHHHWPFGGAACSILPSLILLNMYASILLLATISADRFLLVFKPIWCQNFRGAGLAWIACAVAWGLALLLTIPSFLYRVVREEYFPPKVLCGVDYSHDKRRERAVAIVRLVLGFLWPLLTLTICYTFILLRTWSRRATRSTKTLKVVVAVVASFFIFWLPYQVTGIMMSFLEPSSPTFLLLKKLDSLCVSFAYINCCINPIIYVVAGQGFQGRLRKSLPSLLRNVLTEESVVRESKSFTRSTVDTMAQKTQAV

IC50 [nM] | SMILES
< 10 | COc1ccc2c(c1)C[C@H](C(=O)Nc1ccc(C)c(C(F)(F)F)c1)[C@H](c1ccc(NC3CCCC3)cc1)N2C(=O)c1c(C)cccc1F [INF024, (2R,3S)-2-(4-(cyclopentylamino)phenyl)-1-(2-fluoro-6-methylbenzoyl)-6-methoxy-N-(4-methyl-3-(trifluoromethyl)phenyl)-1,2,3,4-tetrahydroquinoline-3-carboxamide]
< 10 | Cc1ccc2c(c1)C[C@H](C(=O)Nc1ccc(C)c(C(F)(F)F)c1)[C@H](c1ccc(NC3CCCC3)cc1)N2C(=O)c1c(C)cccc1F [INF023, (2R,3S)-2-(4-(cyclopentylamino)phenyl)-1-(2-fluoro-6-methylbenzoyl)-6-methyl-N-(4-methyl-3-(trifluoromethyl)phenyl)-1,2,3,4-tetrahydroquinoline-3-carboxamide]
< 10 | O=C(Nc1ccc(O)c(C(F)(F)F)c1)[C@H]1C[C@@H](C(F)(F)F)CN(C(=O)c2c(F)cccc2F)[C@H]1c1ccc(NC2CCCC2)cc1 [INF068, (2R,3S,5R)-2-(4-(cyclopentylamino)phenyl)-1-(2,6-difluorobenzoyl)-N-(4-hydroxy-3-(trifluoromethyl)phenyl)-5-(trifluoromethyl)piperidine-3-carboxamide]
< 10 | Cc1ccc(NC(=O)[C@H]2C[C@@H](C(F)(F)F)CN(C(=O)c3c(F)cccc3F)[C@H]2c2ccc(NC3CCCC3)cc2)cc1Cl [INF071, (2R,3S,5R)—N-(3-chloro-4-methylphenyl)-2-(4-(cyclopentylamino)phenyl)-1-(2,6-difluorobenzoyl)-5-(trifluoromethyl)piperidine-3-carboxamide]
< 10 | Cc1cccc(F)c1C(=O)N1c2ccccc2C[C@H](C(=O)Nc2ccc(O)c(C(F)(F)F)c2)[C@@H]1c1ccc(NC2CCCC2)cc1 [INF033, (2R,3S)-2-(4-(cyclopentylamino)phenyl)-1-(2-fluoro-6-methylbenzoyl)-N-(4-hydroxy-3-(trifluoromethyl)phenyl)-1,2,3,4-tetrahydroquinoline-3-carboxamide]
< 10 | Cc1cccc(F)c1C(=O)N1c2ccc(F)cc2C[C@H](C(=O)Nc2ccc(CO)c(C(F)(F)F)c2)[C@@H]1c1ccc(NC2CCCC2)cc1 [INF039, (2R,3S)-2-(4-(cyclopentylamino)phenyl)-6-fluoro-1-(2-fluoro-6-methylbenzoyl)-N-(4-(hydroxymethyl)-3-(trifluoromethyl)phenyl)-1,2,3,4-tetrahydroquinoline-3-carboxamide]
< 10 | Cc1ccc(NC(=O)[C@H]2C[C@@H](C(F)(F)F)CN(C(=O)c3c(F)cccc3F)[C@H]2c2ccc(NC3CCCC3)cc2)cc1C(F)(F)F [INF052, (2R,3S,5R)-2-(4-(cyclopentylamino)phenyl)-1-(2,6-difluorobenzoyl)-N-(4-methyl-3-(trifluoromethyl)phenyl)-5-(trifluoromethyl)piperidine-3-carboxamide]
< 10 | Cc1ccc(NC(=O)[C@H]2Cc3ccccc3N(C(=O)c3c(C)cccc3F)[C@H]2c2ccc(NC3CCCC3)cc2)cc1C(F)(F)F [INF004, (2R,3S)-2-(4-(cyclopentylamino)phenyl)-1-(2-fluoro-6-methylbenzoyl)-N-(4-methyl-3-(trifluoromethyl)phenyl)-1,2,3,4-tetrahydroquinoline-3-carboxamide]
< 10 | Cc1cccc(F)c1C(=O)N1c2ccccc2C[C@H](C(=O)Nc2ccc(CO)c(C(F)(F)F)c2)[C@@H]1c1ccc(NC2CCCC2)cc1 [INF015, (2R,3S)-2-(4-(cyclopentylamino)phenyl)-1-(2-fluoro-6-methylbenzoyl)-N-(4-(hydroxymethyl)-3-(trifluoromethyl)phenyl)-1,2,3,4-tetrahydroquinoline-3-carboxamide]
< 10 | [2H]C1(Nc2ccc([C@H]3[C@@H](C(=O)Nc4ccc(C)c(C(F)(F)F)c4)C[C@@H](C(F)(F)F)CN3C(=O)c3c(F)cccc3F)cc2)CCCC1 [INF067, (2R,3S,5R)-2-(4-((cyclopentyl-1-d)amino)phenyl)-1-(2,6-difluorobenzoyl)-N-(4-methyl-3-(trifluoromethyl)phenyl)-5-(trifluoromethyl)piperidine-3-carboxamide]
< 10 | Cc1cccc(F)c1C(=O)N1c2cccc(F)c2C[C@H](C(=O)Nc2ccc(CO)c(C(F)(F)F)c2)[C@@H]1c1ccc(NC2CCCC2)cc1 [INF045, (2R,3S)-2-(4-(cyclopentylamino)phenyl)-5-fluoro-1-(2-fluoro-6-methylbenzoyl)-N-(4-(hydroxymethyl)-3-(trifluoromethyl)phenyl)-1,2,3,4-tetrahydroquinoline-3-carboxamide]
< 10 | Cc1ccc(NC(=O)[C@H]2Cc3cc(F)ccc3N(C(=O)c3c(C)cccc3F)[C@H]2c2ccc(NC3CCCC3)cc2)cc1C(F)(F)F [INF022, (2R,3S)-2-(4-(cyclopentylamino)phenyl)-6-fluoro-1-(2-fluoro-6-methylbenzoyl)-N-(4-methyl-3-(trifluoromethyl)phenyl)-1,2,3,4-tetrahydroquinoline-3-carboxamide]
